Bridge positions count the residues as written; N and C are the ends. Square brackets hold non-standard residues; d marks the D form. Peptide text beside a SMILES is read from it. d2Nal = N[C@H](Cc1ccc2ccccc2c1)C(=O)O; Nle = CCCC[C@H](N)C(=O)O

T1 sequence (P32245 whole entry): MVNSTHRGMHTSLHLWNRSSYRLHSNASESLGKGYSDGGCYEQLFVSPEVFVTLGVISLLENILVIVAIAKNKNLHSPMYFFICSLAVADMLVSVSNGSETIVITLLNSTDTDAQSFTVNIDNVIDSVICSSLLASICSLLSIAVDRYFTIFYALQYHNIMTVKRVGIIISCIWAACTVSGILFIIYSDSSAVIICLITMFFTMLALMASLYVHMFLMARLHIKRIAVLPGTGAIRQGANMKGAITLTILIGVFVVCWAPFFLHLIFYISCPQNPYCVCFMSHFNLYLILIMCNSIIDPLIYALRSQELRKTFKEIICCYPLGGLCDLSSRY

One experiment addresses T1, hMC4R (Homo sapiens, UniProt P32245). Description: Lanthanide-based competitive binding assay.
Conditions: not given
Usually EC50 stands for the midpoint of the concentration-response curve. In turn, `CCCC[C@H](NC(=O)[C@H](CO)NC(C)=O)C(=O)N[C@@H](CCC(=O)O)C(=O)N[C@@H](Cc1c[nH]cn1)C(=O)N[C@H](Cc1ccccc1)C(=O)N[C@@H](CCCNC(=N)N)C(=O)N[C@@H](Cc1c[nH]c2ccccc12)C(N)=O` [MSH(7), Ac-Ser-Nle-Glu-His-D-Phe-Arg-Trp-NH2] (Ac-S[Nle]EH[dF]RW-NH2) displayed a concentration giving a half-maximal response (EC50) of approximately 50 nM.

Still in this experiment, the particulars now being: SEM.
Take `CCCC[C@H](NC(=O)COCC(=O)NCCCOCCOCCOCCCNC(=O)CNC(=O)[C@@H]1CCCN1C(=O)CNC(=O)[C@@H]1CCCN1C(=O)CNC(=O)[C@@H]1CCCN1C(=O)COCC(=O)NCCCOCCOCCOCCCNC(=O)[C@H](Cc1c[nH]c2ccccc12)NC(=O)[C@H](CCCNC(=N)N)NC(=O)[C@@H](Cc1ccccc1)NC(=O)[C@H](Cc1c[nH]cn1)NC(=O)[C@H](CCC(=O)O)NC(=O)[C@H](CCCC)NC(=O)[C@H](CO)NC(C)=O)C(=O)N[C@H]1CC(=O)NCCCC[C@@H](C(N)=O)NC(=O)[C@H](Cc2c[nH]c3ccccc23)NC(=O)[C@H](CCCNC(=N)N)NC(=O)[C@@H](Cc2ccc3ccccc3c2)NC(=O)[C@H](Cc2c[nH]cn2)NC1=O` [compound 16, Ac-MSH(7)-PEGO-(Pro-Gly)3-PEGO-SHU9119-NH2]: the concentration giving a half-maximal response (EC50) is 1.38 nM. On the same count and under the same terms, for `CCCC[C@H](NC(=O)COCC(=O)NCCCOCCOCCOCCCNC(=O)COCC(=O)NCCCOCCOCCOCCCNC(=O)[C@H](Cc1c[nH]c2ccccc12)NC(=O)[C@H](CCCNC(=N)N)NC(=O)[C@@H](Cc1ccccc1)NC(=O)[C@H](Cc1c[nH]cn1)NC(=O)[C@H](CCC(=O)O)NC(=O)[C@H](CCCC)NC(=O)[C@H](CO)NC(C)=O)C(=O)N[C@H]1CC(=O)NCCCC[C@@H](C(N)=O)NC(=O)[C@H](Cc2c[nH]c3ccccc23)NC(=O)[C@H](CCCNC(=N)N)NC(=O)[C@@H](Cc2ccc3ccccc3c2)NC(=O)[C@H](Cc2c[nH]cn2)NC1=O` [compound 18, Ac-MSH(7)-PEGO-PEGO-SHU9119-NH2] the value was 1.7 nM. The molecule `CCCC[C@H](NC(=O)COCC(=O)NCCCOCCOCCOCCCNC(=O)[C@H](Cc1c[nH]c2ccccc12)NC(=O)[C@H](CCCNC(=N)N)NC(=O)[C@@H](Cc1ccccc1)NC(=O)[C@H](Cc1c[nH]cn1)NC(=O)[C@H](CCC(=O)O)NC(=O)[C@H](CCCC)NC(=O)[C@H](CO)NC(C)=O)C(=O)N[C@H]1CC(=O)NCCCC[C@@H](C(N)=O)NC(=O)[C@H](Cc2c[nH]c3ccccc23)NC(=O)[C@H](CCCNC(=N)N)NC(=O)[C@@H](Cc2ccc3ccccc3c2)NC(=O)[C@H](Cc2c[nH]cn2)NC1=O` [compound 17, Ac-MSH(7)-PEGO-SHU9119-NH2] gave a concentration giving a half-maximal response (EC50) of 1.86 nM. For the molecule `CCCC[C@H](NC(=O)CNC(=O)[C@@H]1CCCN1C(=O)CNC(=O)[C@@H]1CCCN1C(=O)CNC(=O)[C@@H]1CCCN1C(=O)CNC(=O)[C@@H]1CCCN1C(=O)CNC(=O)[C@@H]1CCCN1C(=O)CNC(=O)[C@@H]1CCCN1C(=O)CNC(=O)[C@@H]1CCCN1C(=O)CNC(=O)[C@@H]1CCCN1C(=O)CNC(=O)[C@@H]1CCCN1C(=O)CNC(=O)[C@@H]1CCCN1C(=O)CNC(=O)[C@@H]1CCCN1C(=O)CNC(=O)[C@@H]1CCCN1C(=O)[C@H](Cc1c[nH]c2ccccc12)NC(=O)[C@H](CCCNC(=N)N)NC(=O)[C@@H](Cc1ccccc1)NC(=O)[C@H](Cc1c[nH]cn1)NC(=O)[C@H](CCC(=O)O)NC(=O)[C@H](CCCC)NC(=O)[C@H](CO)NC(C)=O)C(=O)N[C@H]1CC(=O)NCCCC[C@@H](C(N)=O)NC(=O)[C@H](Cc2c[nH]c3ccccc23)NC(=O)[C@H](CCCNC(=N)N)NC(=O)[C@@H](Cc2ccc3ccccc3c2)NC(=O)[C@H](Cc2c[nH]cn2)NC1=O` [compound 15, Ac-MSH(7)-(Pro-Gly)12-SHU9119-NH2] (Ac-S[Nle]EH[dF]RWPGPGPGPGPGPGPGPGPGPGPGPG[Nle]DH[d2Nal]RWK-NH2; lactam 33-38), the EC50 is 1.58 nM.

For another experiment, the target named is T1, hMC4R.
Test: not given
To be noted: binding to hMC4R, MSH(7) ligands; cited from earlier work.
Regarding “Ac-(Pro-Gly)9- MSH(7)-NH2 (Ac-PGPGPGPGPGPGPGPGPGS[Nle]EH[dF]RW-NH2; SMILES CCCC[C@H](NC(=O)[C@H](CO)NC(=O)CNC(=O)[C@@H]1CCCN1C(=O)CNC(=O)[C@@H]1CCCN1C(=O)CNC(=O)[C@@H]1CCCN1C(=O)CNC(=O)[C@@H]1CCCN1C(=O)CNC(=O)[C@@H]1CCCN1C(=O)CNC(=O)[C@@H]1CCCN1C(=O)CNC(=O)[C@@H]1CCCN1C(=O)CNC(=O)[C@@H]1CCCN1C(=O)CNC(=O)[C@@H]1CCCN1C(C)=O)C(=O)N[C@@H](CCC(=O)O)C(=O)N[C@@H](Cc1c[nH]cn1)C(=O)N[C@H](Cc1ccccc1)C(=O)N[C@@H](CCCNC(=N)N)C(=O)N[C@@H](Cc1c[nH]c2ccccc12)C(N)=O) [compound 20]”, the EC50 is 236 ± 24 nM. In the case of “Ac-MSH(7)-(Pro-Gly)6- MSH(7)-NH2 (Ac-S[Nle]EH[dF]RWPGPGPGPGPGPGS[Nle]EH[dF]RW-NH2; SMILES CCCC[C@H](NC(=O)[C@H](CO)NC(C)=O)C(=O)N[C@@H](CCC(=O)O)C(=O)N[C@@H](Cc1c[nH]cn1)C(=O)N[C@H](Cc1ccccc1)C(=O)N[C@@H](CCCNC(=N)N)C(=O)N[C@@H](Cc1c[nH]c2ccccc12)C(=O)N1CCC[C@H]1C(=O)NCC(=O)N1CCC[C@H]1C(=O)NCC(=O)N1CCC[C@H]1C(=O)NCC(=O)N1CCC[C@H]1C(=O)NCC(=O)N1CCC[C@H]1C(=O)NCC(=O)N1CCC[C@H]1C(=O)NCC(=O)N[C@@H](CO)C(=O)N[C@@H](CCCC)C(=O)N[C@@H](CCC(=O)O)C(=O)N[C@@H](Cc1c[nH]cn1)C(=O)N[C@H](Cc1ccccc1)C(=O)N[C@@H](CCCNC(=N)N)C(=O)N[C@@H](Cc1c[nH]c2ccccc12)C(N)=O) [compound 22]”, the concentration giving a half-maximal response (EC50) was 11 ± 2 nM. For the molecule “Ac-(Pro-Gly)6- MSH(7)-NH2 (Ac-PGPGPGPGPGPGS[Nle]EH[dF]RW-NH2; SMILES CCCC[C@H](NC(=O)[C@H](CO)NC(=O)CNC(=O)[C@@H]1CCCN1C(=O)CNC(=O)[C@@H]1CCCN1C(=O)CNC(=O)[C@@H]1CCCN1C(=O)CNC(=O)[C@@H]1CCCN1C(=O)CNC(=O)[C@@H]1CCCN1C(=O)CNC(=O)[C@@H]1CCCN1C(C)=O)C(=O)N[C@@H](CCC(=O)O)C(=O)N[C@@H](Cc1c[nH]cn1)C(=O)N[C@H](Cc1ccccc1)C(=O)N[C@@H](CCCNC(=N)N)C(=O)N[C@@H](Cc1c[nH]c2ccccc12)C(N)=O) [compound 19]”, the concentration for a half-maximal effect (EC50) was 82 ± 12 nM.

Take “Ac-(Pro-Gly)12- MSH(7)-NH2 (Ac-PGPGPGPGPGPGPGPGPGPGPGPGS[Nle]EH[dF]RW-NH2; SMILES CCCC[C@H](NC(=O)[C@H](CO)NC(=O)CNC(=O)[C@@H]1CCCN1C(=O)CNC(=O)[C@@H]1CCCN1C(=O)CNC(=O)[C@@H]1CCCN1C(=O)CNC(=O)[C@@H]1CCCN1C(=O)CNC(=O)[C@@H]1CCCN1C(=O)CNC(=O)[C@@H]1CCCN1C(=O)CNC(=O)[C@@H]1CCCN1C(=O)CNC(=O)[C@@H]1CCCN1C(=O)CNC(=O)[C@@H]1CCCN1C(=O)CNC(=O)[C@@H]1CCCN1C(=O)CNC(=O)[C@@H]1CCCN1C(=O)CNC(=O)[C@@H]1CCCN1C(C)=O)C(=O)N[C@@H](CCC(=O)O)C(=O)N[C@@H](Cc1c[nH]cn1)C(=O)N[C@H](Cc1ccccc1)C(=O)N[C@@H](CCCNC(=N)N)C(=O)N[C@@H](Cc1c[nH]c2ccccc12)C(N)=O) [compound 21]”: the concentration for a half-maximal effect (EC50) is 188 ± 25 nM.

The record behind these values is article PMC4254589 (Bioorganic & medicinal chemistry, 2014).
